Data taken from PubChem BioAssay (NCI).
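Exposure lasted 48 hours, with cells grown in 96-well plates and compounds tested at five concentrations. GI50 = concentration required for 50% inhibition of growth. TGI marks complete inhibition of growth.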

Experiments:
Experiment in all cases: growth of human tumour cells (NCI), 48 h
CCRF-CEM leukemia = tested on: CCRF-CEM leukemia
SF-268 CNS = tested on: SF-268 CNS
RXF 393 renal = tested on: RXF 393 renal
OVCAR-5 ovarian = tested on: OVCAR-5 ovarian
SW-620 colon = tested on: SW-620 colon
SF-539 CNS = tested on: SF-539 CNS
PC-3 prostate = tested on: PC-3 prostate
CAKI-1 renal = tested on: CAKI-1 renal
ACHN renal = tested on: ACHN renal
SK-MEL-28 melanoma = tested on: SK-MEL-28 melanoma

Compound	TGI (CCRF-CEM leukemia) [µM]	TGI (SF-268 CNS) [µM]	TGI (RXF 393 renal) [µM]	TGI (OVCAR-5 ovarian) [µM]	TGI (SW-620 colon) [µM]	TGI (SF-539 CNS) [µM]	TGI (PC-3 prostate) [µM]	TGI (CAKI-1 renal) [µM]	TGI (ACHN renal) [µM]	TGI (SK-MEL-28 melanoma) [µM]	GI50 (SF-539 CNS) [µM]	GI50 (CCRF-CEM leukemia) [µM]	GI50 (SF-268 CNS) [µM]	GI50 (RXF 393 renal) [µM]	GI50 (OVCAR-5 ovarian) [µM]	GI50 (SW-620 colon) [µM]	GI50 (PC-3 prostate) [µM]	GI50 (CAKI-1 renal) [µM]	GI50 (ACHN renal) [µM]	GI50 (SK-MEL-28 melanoma) [µM]
CCOc1c(OC)cc(CNNc2nccs2)cc1OC	> 100	> 100	> 100	> 100	> 100	> 100	> 100	> 100	> 100	> 100	–	–	–	–	–	–	–	–	–	–
CC1(C)CC(=O)C2=C(C1)OC1=C(CC(C)(C)CC1=O)C2c1ccccc1Cl (stereo unspecified)	> 100	> 100	> 100	> 100	> 100	> 100	> 100	> 100	> 100	> 100	–	–	–	–	–	–	–	–	–	–
O=S(=O)(N1CCCCN(S(=O)(=O)C(F)(F)F)CCCN(S(=O)(=O)C(F)(F)F)CCCN(S(=O)(=O)C(F)(F)F)CCCCN(S(=O)(=O)C(F)(F)F)CCCN(S(=O)(=O)C(F)(F)F)CCC1)C(F)(F)F	> 100	> 100	70.2	> 100	> 100	84.1	> 100	> 100	> 100	> 100	–	–	–	–	–	–	–	–	–	–
O=C1N[C@@H](c2c[nH]c3ccc(Br)cc23)C(=O)N[C@H]1c1c[nH]c2ccc(Br)cc12	24	26.3	43.4	28.8	26.2	18.9	16.1	30.4	15.8	28.5	–	–	–	–	–	–	–	–	–	–
CC(=O)CC(=O)Nn1c(-c2cccs2)nc2ccc(I)cc2c1=O	> 100	> 100	> 100	> 100	> 100	34.4	> 100	> 74	> 100	> 100	13.8	–	–	–	–	–	–	–	–	–
COc1cc2c(cc1C)NC(=O)/C2=C/c1c(Cl)n(C)c2ccccc12	> 100	16.2	19.6	36.4	> 100	56.5	29.6	24.4	25.7	62.6	–	–	–	–	–	–	–	–	–	–
Cc1ccc(-n2cc(-c3ccc(Cl)cc3)c3c(NNC(=S)NCc4ccccc4)ncnc32)cc1	> 100	> 100	56.4	48.6	> 100	30.7	23.1	29.1	> 100	> 100	–	–	–	–	–	–	–	–	–	–
O=C1c2c(ccc3c2CCCC3)CC12Cc1ccccc1C2	27	> 100	46.2	> 67.6	> 100	> 75.3	> 100	> 77.7	97.1	> 80.4	–	–	–	–	–	–	–	–	–	–
COc1c(-c2ccc3c(c2)OCO3)oc2cc3c(c(OC)c2c1=O)OCO3	> 100	44.2	69.8	> 100	> 100	34.8	58	62.4	63	> 100	–	–	–	–	–	–	–	–	–	–
CC(C)(C)C(=O)C(C#N)C(=O)C(C)(C)C	> 100	> 100	> 100	> 100	> 100	> 100	> 100	> 100	> 100	> 100	–	–	–	–	–	–	–	–	–	–
CN(C)CCCn1c2c(c3ccncc3c1=O)C(=O)c1ccccc1-2	13	10.7	3.86	9.25	13.1	5.95	9.78	5.53	10.4	4.7	0.714	0.77	1.47	1.14	1.82	0.41	1.14	0.572	0.339	1.72
CSc1nc(Cl)c2c(n1)Sc1ncnn1C2O (stereo unspecified)	10.9	26.7	5.63	32.3	36.3	15.5	27.7	25.4	15.4	> 100	–	–	–	–	–	–	–	–	–	–
COC(=O)c1cc(CNCCc2c[nH]c3ccccc23)on1	> 100	> 100	> 100	> 100	> 100	> 100	> 100	> 100	> 100	> 100	–	–	–	–	–	–	–	–	–	–
Cc1ccc(-c2c(C#N)c(O)n(NS(=O)(=O)c3ccccc3)c(=O)c2C#N)cc1	> 100	> 100	> 100	> 100	> 100	> 100	> 100	> 100	> 100	> 100	–	–	–	–	–	–	–	–	–	–
COc1cc(OC)cc(N(C)Cc2cnc3nc(N)nc(N)c3c2C)c1	> 100	> 100	> 100	> 100	> 100	4.96	> 100	> 100	> 100	> 100	–	–	–	–	–	–	–	–	–	–
C[C@H]1C(=O)C2=C[C@H]1CCC(=O)[C@]1(C)CCCC(C)(C)[C@H]1C[C@H]2O	75.4	64	23.6	> 100	28.2	28.8	> 100	> 100	31.6	> 100	–	–	–	–	–	–	–	–	–	–
COc1ccc(N=Nc2ccc3oc(=O)c(C(=O)Nc4ccc(OC)cc4)cc3c2)cc1	> 100	48.8	> 100	50.6	66.1	22.8	43.1	> 100	56.5	41.1	–	–	–	–	–	–	–	–	–	–
